The record followed here is US12435061B2 (priority 2020, dated 2025).

Structures are written as SMILES. pIC50: −log10 of the molar value. Like-named read-outs stand apart in the source and are kept apart here.

The assay deals with hTRPV3 (Homo sapiens (Human), UniProt Q8NET8). Nature of the assay: Whole-cell patch clamp, hTRPV3 Phase 1 / Phase 2 currents. The format is cell-based. The note with it: for pIC50: inward, whole-cell patch clamp. The method, boiled down:
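Currents are activated by 20 μM 2-APB or by perfusate at 28 °C or warmer, in Ringer's solution, and quantified at ±80 mV.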

[1] abbreviates: Phase 1 current, read-out: hTRPV3 Patch P1 Inwd.
[2] abbreviates: Phase 1 current, read-out: hTRPV3 (nM) (Phase 1).
[3] abbreviates: Phase 2 current, read-out: hTRPV3 Patch P2 Inwd.
[4] abbreviates: Phase 2 current, read-out: hTRPV3 (nM) (Phase 2).

hTRPV3, sequence (Q8NET8 whole entry): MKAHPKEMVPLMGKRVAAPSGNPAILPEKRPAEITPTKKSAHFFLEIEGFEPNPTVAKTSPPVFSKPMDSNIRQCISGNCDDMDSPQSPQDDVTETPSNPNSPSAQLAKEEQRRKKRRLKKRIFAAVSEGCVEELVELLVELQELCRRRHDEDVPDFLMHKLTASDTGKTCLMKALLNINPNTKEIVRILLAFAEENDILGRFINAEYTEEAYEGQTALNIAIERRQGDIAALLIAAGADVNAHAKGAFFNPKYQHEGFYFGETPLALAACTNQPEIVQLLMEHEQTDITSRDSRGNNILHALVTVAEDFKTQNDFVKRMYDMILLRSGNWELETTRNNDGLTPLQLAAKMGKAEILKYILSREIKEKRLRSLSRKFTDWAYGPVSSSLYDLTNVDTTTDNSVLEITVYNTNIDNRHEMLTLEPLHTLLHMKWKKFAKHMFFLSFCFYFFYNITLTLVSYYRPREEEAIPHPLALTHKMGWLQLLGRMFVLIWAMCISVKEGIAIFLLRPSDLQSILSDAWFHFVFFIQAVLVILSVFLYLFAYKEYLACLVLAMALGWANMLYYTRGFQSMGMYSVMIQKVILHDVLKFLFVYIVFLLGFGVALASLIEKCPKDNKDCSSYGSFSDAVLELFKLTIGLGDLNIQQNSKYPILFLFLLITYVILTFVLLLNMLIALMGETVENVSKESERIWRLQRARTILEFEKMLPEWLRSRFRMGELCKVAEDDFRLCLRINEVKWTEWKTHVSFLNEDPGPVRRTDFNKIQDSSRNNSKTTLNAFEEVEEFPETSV

On to `COCc1ccc(C(O)c2ccc(N3CC[C@H](Oc4ncccc4Cl)C3)c(CO)c2)cc1` (stereo partly drawn) [Compound 1-290, (4-((S)-3-(3-chloropyridin-2-yloxy)pyrrolidin-1-yl)-3-(hydroxymethyl)phenyl)(4-(methoxymethyl)phenyl)methanol], for which the pIC50 was below 6.00 under setting [1] and below 6.00 under setting [3]. Besides, the IC50 is above 3200 nM under setting [2] and above 3200 nM under setting [4].

Turning to `O=C(c1ccc(Cl)cc1)c1ccc(N2CC[C@H](Oc3ncccc3Cl)C2)c(CCO)c1` [Compound 1-291, (S)-(4-chlorophenyl)(4-(3-(3-chloropyridin-2-yloxy)pyrrolidin-1-yl)-3-(2-hydroxyethyl)phenyl)methanone], the pIC50 under setting [1] is 6.00 to 7.00 and the pIC50 under setting [3] is 6.00 to 7.00. Also, the IC50 was around 188 nM under setting [2] and around 217 nM under setting [4].

In the case of `OCCc1cc(C(O)c2ccc(Cl)cc2)ccc1N1CC[C@H](Oc2ncccc2Cl)C1` (stereo partly drawn) [Compound 1-292, 2-(5-((4-chlorophenyl)(hydroxy)methyl)-2-((S)-3-(3-chloropyridin-2-yloxy)pyrrolidin-1-yl)phenyl)ethanol], the pIC50 is, setting by setting: under setting [1], below 6.00; under setting [3], below 6.00. For the same compound, the IC50 reads like this: under setting [2], around 4900 nM; under setting [4], around 5100 nM.

Take `O=C(c1ccc(F)cc1)c1ccc(N2CC[C@H](Oc3ncccc3F)C2)c(CO)c1` [Compound 1-293, (S)-(4-fluorophenyl)(4-(3-(3-fluoropyridin-2-yloxy)pyrrolidin-1-yl)-3-(hydroxymethyl)phenyl)methanone]: the pIC50 was 6.00 to 7.00 under setting [1] and 6.00 to 7.00 under setting [3]. For the same compound, the IC50 reads like this: under setting [2], 329 nM; under setting [4], 322 nM.

As to `O=C(c1ccc(F)cc1)c1ccc(N2CC[C@H](Oc3ncccc3Cl)C2)c(CCO)c1` [Compound 1-294, (S)-(4-(3-(3-chloropyridin-2-yloxy)pyrrolidin-1-yl)-3-(2-hydroxyethyl)phenyl)(4-fluorophenyl)methanone], the pIC50 reads like this: under setting [1], 6.00 to 7.00; under setting [3], 6.00 to 7.00. Besides, the IC50 by setting is: under setting [2], 511 nM; under setting [4], 502 nM.

In the case of `Cc1ccc(C(=O)c2ccc(N3CC[C@H](Oc4ncccc4Cl)C3)c(CCO)c2)cc1` [Compound 1-295, (S)-(4-(3-(3-chloropyridin-2-yloxy)pyrrolidin-1-yl)-3-(2-hydroxyethyl)phenyl)(p-tolyl)methanone], the pIC50 was 6.00 to 7.00 under setting [1] and 6.00 to 7.00 under setting [3]. The IC50 by setting is: under setting [2], around 225 nM; under setting [4], around 178 nM.

For `OCCc1cc(C(O)c2ccc(F)cc2)ccc1N1CC[C@H](Oc2ncccc2Cl)C1` (stereo partly drawn) [Compound 1-296, 2-(2-((S)-3-(3-chloropyridin-2-yloxy)pyrrolidin-1-yl)-5-((4-fluorophenyl)(hydroxy)methyl)phenyl)ethanol], the pIC50 reads like this: under setting [1], below 6.00; under setting [3], below 6.00. Besides, the IC50 is 1070 nM under setting [2] and 2160 nM under setting [4].

For the compound `OCc1cc(Oc2ccccc2F)ccc1N1CC[C@H](Oc2ncccc2F)C1` [Compound 1-298, (S)-(5-(2-fluorophenoxy)-2-(3-(3-fluoropyridin-2-yloxy)pyrrolidin-1-yl)phenyl)methanol], the pIC50 under setting [1] was 7.00 to 8.00 and the pIC50 under setting [3] was 7.00 to 8.00. In addition, the IC50 by setting is: under setting [2], 65.7 nM; under setting [4], 52.9 nM.

Take `CC(C)(C)OC(=O)N1CC=C(c2ccc(N3CC[C@H](Oc4ccc(C(F)(F)F)cn4)C3)c(CCO)c2)CC1` [Compound 1-299, (S)-tert-butyl 4-(3-(2-hydroxyethyl)-4-(3-(5-(trifluoromethyl)pyridin-2-yloxy)pyrrolidin-1-yl)phenyl)-5,6-dihydropyridine-1 (2H)-carboxylate]: the pIC50 under setting [1] is below 6.00. Moreover, the IC50 under setting [2] is above 3200 nM.

Turning to `Cc1ccc(C(=O)c2ccc(N3CC[C@H](Oc4ncccc4F)C3)c(CO)c2)cc1` [Compound 1-300, (S)-(4-(3-(3-fluoropyridin-2-yloxy)pyrrolidin-1-yl)-3-(hydroxymethyl)phenyl)(p-tolyl)methanone], the pIC50 under setting [1] is 6.00 to 7.00. The IC50 under setting [2] turned out to be 860 nM.

As for `CC(C)(C)OC(=O)N1CCC(c2ccc(N3CC[C@H](Oc4ccc(C(F)(F)F)cn4)C3)c(CCO)c2)CC1` [Compound 1-301, (S)-tert-butyl 4-(3-(2-hydroxyethyl)-4-(3-(5-(trifluoromethyl)pyridin-2-yloxy)pyrrolidin-1-yl)phenyl)piperidine-1-carboxylate], the pIC50 under setting [1] is below 6.00. Besides, under setting [2], the IC50 is around 2980 nM.

In the case of `COc1ccc(Oc2ccc(N3CC[C@H](Oc4ccccn4)C3)c(CO)c2)cc1` [Compound 1-302], the pIC50 under setting [1] was 6.00 to 7.00. The IC50 under setting [2] worked out at 282 nM.

With `OCc1cc(Oc2ccc(Cl)c(C(F)(F)F)c2)ccc1N1CC[C@H](Oc2ccccn2)C1` [Compound 1-303], under setting [1], the pIC50 is 7.00 to 8.00. Also, the IC50 under setting [2] came to 56.3 nM.

As for `N#Cc1cc(Br)ccc1N1CC[C@H](Oc2ncccc2Cl)C1` [Compound 1-305], the pIC50 under setting [1] is below 6.00.

Take `CC(=O)c1ccc(Oc2ccc(N3CC[C@H](Oc4ccccn4)C3)c(CO)c2)c(F)c1` [Compound 1-306]: the pIC50 under setting [1] was 6.00 to 7.00 and the pIC50 under setting [3] was 6.00 to 7.00. Moreover, the IC50 by setting is: under setting [2], 982 nM; under setting [4], 735 nM.

In the case of `OCc1cc(Oc2cccc(OC(F)(F)F)c2)ccc1N1CC[C@H](Oc2ccccn2)C1` [Compound 1-307], the pIC50 under setting [1] was 7.00 to 8.00. Also, under setting [2], the IC50 is around 59.5 nM.

Consider `CCc1ccccc1Oc1ccc(N2CC[C@H](Oc3ncccc3Cl)C2)c(C#N)c1` [Compound 1-308], for which the pIC50 under setting [1] was below 6.00. Further, the IC50 under setting [2] is above 3200 nM.

Take `Cc1ccc(C(=O)c2ccc(N3CC[C@H](Oc4ncccc4F)C3)c(CCO)c2)cc1` [Compound 1-309, (S)-(4-(3-(3-fluoropyridin-2-yloxy)pyrrolidin-1-yl)-3-(2-hydroxyethyl)phenyl)(p-tolyl)methanone]: the pIC50 runs as follows: under setting [1], below 6.00; under setting [3], 6.00 to 7.00. The IC50 under setting [2] is around 2080 nM and the IC50 under setting [4] worked out at 822 nM.

As for `Cc1ccc(C(O)c2ccc(N3CC[C@H](Oc4ncccc4Cl)C3)c(CCO)c2)cc1` (stereo partly drawn) [Compound 1-310, 2-(2-((S)-3-(3-chloropyridin-2-yloxy)pyrrolidin-1-yl)-5-(hydroxy(p-tolyl)methyl)phenyl)ethanol], under setting [1], the pIC50 is below 6.00. The IC50 under setting [2] turned out to be 4200 nM.

In the case of `O=C(c1cccc(F)c1)c1ccc(N2CC[C@H](Oc3ncccc3Cl)C2)c(CCO)c1` [Compound 1-311, (S)-(4-(3-(3-chloropyridin-2-yloxy)pyrrolidin-1-yl)-3-(2-hydroxyethyl)phenyl)(3-fluorophenyl)methanone], the pIC50 under setting [1] was 6.00 to 7.00. For the same compound, the IC50 under setting [2] was found to be 417 nM.

As to `OCCc1cc(C(O)c2cccc(F)c2)ccc1N1CC[C@H](Oc2ncccc2Cl)C1` (stereo partly drawn) [Compound 1-312, 2-(2-((S)-3-(3-chloropyridin-2-yloxy)pyrrolidin-1-yl)-5-((3-fluorophenyl)(hydroxy)methyl)phenyl)ethanol], under setting [1], the pIC50 was below 6.00. In addition, the IC50 under setting [2] is around 1920 nM.

As for `O=C(c1cccc(Cl)c1)c1ccc(CCO)c(N2CC[C@H](Oc3ncccc3Cl)C2)c1` [Compound 1-314, (S)-(3-chlorophenyl)(3-(3-(3-chloropyridin-2-yloxy)pyrrolidin-1-yl)-4-(2-hydroxyethyl)phenyl)methanone], the pIC50 by setting is: under setting [1], 6.00 to 7.00; under setting [3], 6.00 to 7.00. Besides, the IC50 reads like this: under setting [2], 229 nM; under setting [4], 307 nM.

For `O=C(c1ccc(F)cc1)c1ccc(N2CC[C@H](Oc3ncccc3Cl)C2)c(CCO)c1` [Compound 1-315, (S)-(4-(3-(3-chloropyridin-2-yloxy)pyrrolidin-1-yl)-3-(2-hydroxyethyl)phenyl)(4-fluorophenyl)methanone], the pIC50 under setting [1] is below 6.00. Also, the IC50 under setting [2] was found to be 1260 nM.

In the case of `O=C(Nc1ccc(F)cc1)c1ccc(N2CC[C@H](Oc3ncccc3Cl)C2)c(CCO)c1` [Compound 1-319, (S)-4-(3-(3-chloropyridin-2-yloxy)pyrrolidin-1-yl)-N-(4-fluorophenyl)-3-(2-hydroxyethyl)benzamide], the pIC50 under setting [1] is below 6.00. Also, the IC50 under setting [2] is 3440 nM.

On to `O=C(Nc1ccccc1)c1ccc(N2CC[C@H](Oc3ncccc3Cl)C2)c(CCO)c1` [Compound 1-320, (S)-4-(3-(3-chloropyridin-2-yloxy)pyrrolidin-1-yl)-3-(2-hydroxyethyl)-N-phenylbenzamide], for which the pIC50 under setting [1] was below 6.00. Besides, under setting [2], the IC50 was around 4660 nM.

In the case of `OCc1nc(-c2ccccc2)ccc1N1C[C@@H](O)[C@H](Oc2ccc(C(F)(F)F)cn2)C1` [Compound 1-323], the pIC50 under setting [1] is below 6.00. The IC50 under setting [2] worked out at 3610 nM.

On to `CCc1ccccc1Oc1ccc(N2CC[C@H](Oc3ncccc3Cl)C2)c(C(N)=O)c1` [Compound 1-324], for which, under “Phase 1 current”, the “hTRPV3 (nM) (Phase 1)” value is “Incomplete Block (Phase 1)”.

On to `CC(C)c1ccc(Oc2ccc(N3CC[C@H](Oc4ccccn4)C3)c(CO)c2)cc1` [Compound 1-325], for which the “hTRPV3 (nM) (Phase 1)” value (Phase 1 current) was “Incomplete Block (Phase 1)”.

With `CC(O)c1cc(F)ccc1Oc1ccc(N2CC[C@H](Oc3ccccn3)C2)c(CO)c1` (some centres unmarked) [Compound 1-326], the pIC50 is below 6.00 under setting [1] and 6.00 to 7.00 under setting [3]. The IC50 runs as follows: under setting [2], 1470 nM; under setting [4], 575 nM.

As to `O=C(c1cccc(Cl)c1)c1ccc(N2CC[C@H](Oc3ncccc3Cl)C2)c(CCO)c1` [Compound 1-328, (S)-(3-chlorophenyl)(4-(3-(3-chloropyridin-2-yloxy)pyrrolidin-1-yl)-3-(2-hydroxyethyl)phenyl)methanone], under setting [1], the pIC50 was 6.00 to 7.00. In addition, under setting [2], the IC50 stood at 615 nM.

Regarding `OCCc1cc(C(O)c2cccc(Cl)c2)ccc1N1CC[C@H](Oc2ncccc2Cl)C1` (stereo partly drawn) [Compound 1-329, 2-(5-((3-chlorophenyl)(hydroxy)methyl)-2-((S)-3-(3-chloropyridin-2-yloxy)pyrrolidin-1-yl)phenyl)ethanol], the pIC50 under setting [1] was below 6.00. Also, the IC50 under setting [2] amounted to 3100 nM.
